Measured values taken from patent US20060205682A1, “Antibiotic and combinations of antibiotic and symptomatic relief agent formulations” (priority 2005, published 2006).
Values after ≈ are worked out from the molar mass of the structure shown.

Assay: physchem
Settings: pH 8, aqueous buffer, thermodynamic from solid
Description: A 5 ml aliquot of 5% potassium phosphate buffer is added to 500 mg of gamma-cyclodextrin and sonicated until a clear solution is formed. […] The process is repeated with two additional amounts of gamma-cyclodextrin. Known aliquots of each solution are placed in a 2 cm cell and analyzed using a UV-Vis Spectrophotomer between the wavelengths 200-400 nm.

`COc1cc(Cc2cnc(N)nc2N)cc(OC)c1OC` [trimethoprim] showed a solubility thermodynamic at 30 min of 350 µg/mL (≈ 1210 µM).
